For one experiment, the system named is human T-lymphocytes. Particulars: cited from earlier work.
For a further experiment, the target named is T1, Kv 1.6 (Rattus norvegicus, UniProt P17659).
T1 construct: expressed in transfected cells; host or cells: Xenopus oocytes injected with RNA transcribed in vitro from the cDNA clone
Description: Two-electrode voltage clamp of Xenopus oocytes expressing Kv 2 (Kv 1.6). Type of experiment: cell-based. The settings on record: read-out: concentration at which Kv 1.6 was half blocked. The protocol:
(§1) Ionic currents were also recorded from Xenopus oocytes that had been injected with RNA transcribed in vitro from one or another of the following K^+ channel cDNA clones. Kv 1 (rat Kv 1.5), rat or human Kv 3 (rat Kv 1.3; human Kv 1.3), Kv 4 (rat Kv 3.1 ), rat ISK, Kv 2 (rat Kv 1.6) or Drosophila Shaker-H4. The names of the clones are listed as originally published, with the appropriate parenthetical designation according to the unified gene nomenclature proposed by Chandy. Shaker-H4 is a splice variant from the original Drosophila Shaker K^+ channel gene. Kv 1.3 is the ChTX-sensitive delayed rectifier current found in rat and human T lymphocytes (data from rat and human clones were indistinguishable and were combined) and it is a member of the Shaker family. Kv 1.5 is a channel cloned from rat (Swanson et al., Neuron, 4, 929, 1990) and is another member of the Shaker family. The Kv 1.5 transcript has been detected in pancreatic β cells as described in Philipson, et al., Proc. Natl. Acad. Sci. U.S.A. 88, 53, 1991. […] The ISK transcript has been detected in lymphocytes (Attali et al., J. Biol. Chem,. 267, 8650, 1992), but no evidence of the IKs current has been found in those cells.
(§2) Methods for oocyte isolation and micro-injection were previously described in Goldin, Meth. […] Currents expressed in oocytes were measured using a DAGAN model CA-1 two-electrode voltage clamp. […]

The test system of the next experiment is human T cells. Particulars: cited from earlier work.
A further experiment has as its target T2, Shaker-H4 (Drosophila melanogaster, UniProt P08510).
T2 construct: expressed in transfected cells; host or cells: Xenopus oocytes injected with RNA transcribed in vitro from the cDNA clone
The experiment is described as follows: Two-electrode voltage clamp of Xenopus oocytes expressing Shaker-H4. Type of experiment: cell-based. The protocol:
as §1, §2
For orientation: In two-electrode clamp one electrode senses voltage and the other passes current.

Each structure is given as a SMILES string. pIC50: −log10 of the molar value. Peptide text beside a SMILES is read from it.

T1 sequence (P17659 whole entry): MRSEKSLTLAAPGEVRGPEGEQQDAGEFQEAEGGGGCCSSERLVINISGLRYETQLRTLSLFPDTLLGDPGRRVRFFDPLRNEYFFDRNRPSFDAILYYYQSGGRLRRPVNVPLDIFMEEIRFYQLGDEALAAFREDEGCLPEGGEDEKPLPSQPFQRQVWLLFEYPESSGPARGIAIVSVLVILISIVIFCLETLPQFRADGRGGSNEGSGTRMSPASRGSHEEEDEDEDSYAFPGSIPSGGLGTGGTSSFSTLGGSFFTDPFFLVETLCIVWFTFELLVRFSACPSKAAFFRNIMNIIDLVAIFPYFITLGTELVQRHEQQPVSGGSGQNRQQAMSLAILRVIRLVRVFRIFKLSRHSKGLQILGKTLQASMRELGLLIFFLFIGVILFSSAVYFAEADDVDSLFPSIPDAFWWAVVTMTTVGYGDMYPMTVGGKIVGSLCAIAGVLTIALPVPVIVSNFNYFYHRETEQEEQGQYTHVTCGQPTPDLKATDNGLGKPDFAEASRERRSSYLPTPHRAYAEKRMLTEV
T2 sequence (P08510 whole entry): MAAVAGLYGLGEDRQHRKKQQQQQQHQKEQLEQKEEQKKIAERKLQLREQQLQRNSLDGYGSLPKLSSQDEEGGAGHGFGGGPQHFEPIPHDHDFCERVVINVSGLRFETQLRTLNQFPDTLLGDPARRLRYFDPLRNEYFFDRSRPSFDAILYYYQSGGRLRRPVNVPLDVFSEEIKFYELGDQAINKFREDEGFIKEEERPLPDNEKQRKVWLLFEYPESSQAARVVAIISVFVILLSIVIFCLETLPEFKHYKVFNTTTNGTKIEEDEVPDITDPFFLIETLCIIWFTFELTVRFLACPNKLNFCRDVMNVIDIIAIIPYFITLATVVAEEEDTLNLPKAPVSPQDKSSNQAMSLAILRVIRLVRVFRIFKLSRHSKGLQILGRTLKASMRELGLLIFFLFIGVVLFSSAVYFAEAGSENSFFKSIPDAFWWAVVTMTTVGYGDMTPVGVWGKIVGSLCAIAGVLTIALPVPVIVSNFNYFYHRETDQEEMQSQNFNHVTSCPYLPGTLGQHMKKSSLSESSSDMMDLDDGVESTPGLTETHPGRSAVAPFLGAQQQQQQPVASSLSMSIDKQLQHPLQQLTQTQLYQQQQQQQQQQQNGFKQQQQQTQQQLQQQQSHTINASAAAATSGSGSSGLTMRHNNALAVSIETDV

For the molecule `CC[C@H](C)[C@H](NC(=O)[C@@H](N)[C@@H](C)O)C(=O)N[C@H](C(=O)N[C@@H](CC(N)=O)C(=O)N[C@H](C(=O)N[C@@H](CCCCN)C(=O)N[C@H]1CSSC[C@@H]2NC(=O)[C@H](CCCCN)NC(=O)[C@H](C)NC(=O)CNC(=O)[C@H](C)NC(=O)[C@H](CO)NC(=O)[C@H](CCC(N)=O)NC(=O)CNC(=O)[C@H](Cc3ccccc3)NC(=O)[C@H](CCC(N)=O)NC(=O)[C@H](C)NC(=O)[C@H](CCCCN)NC(=O)[C@@H]3CSSC[C@@H](C(=O)N[C@@H](Cc4ccc(O)cc4)C(=O)N4CCC[C@H]4C(=O)N[C@@H](Cc4c[nH]cn4)C(=O)O)NC(=O)[C@H](CCCCN)NC(=O)[C@H](CSSC[C@H](NC(=O)[C@H](CCC(N)=O)NC(=O)[C@H](CCCCN)NC(=O)[C@@H]4CCCN4C(=O)[C@H](CO)NC(=O)[C@H]([C@@H](C)O)NC1=O)C(=O)N[C@@H](CC(C)C)C(=O)N1CCC[C@H]1C(=O)N1CCC[C@H]1C(=O)N3)NC(=O)[C@H](CCCCN)NC(=O)CNC(=O)[C@H](CC(N)=O)NC(=O)[C@H](CCSC)NC2=O)C(C)C)[C@@H](C)CC` [MgTX, Margatoxin] (HELM PEPTIDE1{T.I.I.N.V.K.C.T.S.P.K.Q.C.L.P.P.C.K.A.Q.F.G.Q.S.A.G.A.K.C.M.N.G.K.C.K.C.Y.P.H}$PEPTIDE1,PEPTIDE1,7:R3-29:R3|PEPTIDE1,PEPTIDE1,13:R3-34:R3|PEPTIDE1,PEPTIDE1,17:R3-36:R3$$$V2.0; N-terminus and C-terminus assumed; bridges inferred), the “effect on interleukin 2 production” value in the experiment with human T-lymphocytes is recorded as “inhibits interleukin 2 production”. For the same molecule, at Kv 1.6, the pIC50 was 8.30. In the experiment on human T cells, the “effect on activation and proliferation mediated by Ca2+-dependent pathways” value was “prevent activation and proliferation”; the “effect on membrane potential of human T cells” value is “depolarize human T cells”. At Shaker-H4, this molecule had a pIC50 of 7.00.

Values taken from patent US5494895A, “Scorpion peptide margatoxin with immunosuppressant activity” (Merck & Co., Inc., priority 1993, dated 1996).
